Measurements published in patent US9113629B2, “4-amino-6-(4-substituted-phenyl)-picolinates and 6-amino-2-(4-substituted-phenyl)-pyrimidine-4-carboxylates and their use as herbicides” (DOW AGROSCIENCES LLC, priority 2013, dated 2015).
Read-outs that look alike come from different tables or passages of the source.

Key:
[1] = system: Key Broadleaf Weed and Crop Species; experiment: Post-emergent Test II herbicidal activity (Table 5); format: in vivo; details: post-emergence, 336 h, post-emergent, 14 days after application; for pest or weed control at 70 g/ha: 70 g ai/ha; for pest or weed control at 140 g/ha: 140 g ai/ha
Outline: (§1)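 Scoring: visual, 0–100% injury at 14 d versus untreated. Treatment: overhead track spray, 187 L/ha, onto plants at the first–second true leaf stage. Growth: greenhouse, ~15 h light, 23–29 °C day, 22–28 °C night.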

[2] = system: Key Grass and Sedge Weeds as well as Grass Crops; experiment: Post-emergent Test II herbicidal activity (Table 6); format: in vivo; details: post-emergence, 336 h; for pest or weed control at 70 g/ha: application rate 70 g ai/ha; for pest or weed control at 140 g/ha: application rate 140 g ai/ha
Outline: as §1

[3] = ABUTH: velvetleaf (Abutilon theophrasti), read-out: Visual Growth Reduction (%) 14 Days After Application ABUTH
[4] = AMARE: redroot pigweed (Amaranthus retroflexus), read-out: Visual Growth Reduction (%) 14 Days After Application AMARE
[5] = BRSNN: oilseed-rape, canola (Brassica napus), read-out: Visual Growth Reduction (%) 14 Days After Application BRSNN
[6] = CHEAL: lambsquarters (Chenopodium album), read-out: Visual Growth Reduction (%) 14 Days After Application CHEAL
[7] = EPHHL: wild poinsettia (Euphorbia heterophylla), read-out: Visual Growth Reduction (%) 14 Days After Application EPHHL
[8] = HELAN: sunflower (Helianthus annuus), read-out: Visual Growth Reduction (%) 14 Days After Application HELAN
[9] = VIOTR: wild pansy (Viola tricolor), read-out: Visual Growth Reduction (%) 14 Days After Application VIOTR
[10] = Triticum aestivum, TRZSS (wheat), read-out: Visual Growth Reduction (%) 14 Days After Application, TRZSS
[11] = CYPES: yellow nutsedge (Cyperus esculentus), read-out: Visual Growth Reduction (%) 14 Days After Application, CYPES
[12] = DIGSA: crabgrass (Digitaria sanguinalis), read-out: Visual Growth Reduction (%) 14 Days After Application, DIGSA
[13] = ECHCG: barnyardgrass (Echinochloa crus-galli), read-out: Visual Growth Reduction (%) 14 Days After Application, ECHCG
[14] = ORYSA: rice (Oryza sativa), read-out: Visual Growth Reduction (%) 14 Days After Application, ORYSA
[15] = SETFA: giant foxtail (Setaria faberi), read-out: Visual Growth Reduction (%) 14 Days After Application, SETFA
[16] = SORVU: grain sorghum (Sorghum vulgare), read-out: Visual Growth Reduction (%) 14 Days After Application, SORVU
[17] = ZEAMX: maize, corn (Zea mays), read-out: Visual Growth Reduction (%) 14 Days After Application, ZEAMX

SMILES	pest or weed control at 70 g/ha [1, 3]	pest or weed control at 140 g/ha [1, 3]	pest or weed control at 70 g/ha [1, 4]	pest or weed control at 140 g/ha [1, 4]	pest or weed control at 70 g/ha [1, 5]	pest or weed control at 140 g/ha [1, 5]	pest or weed control at 70 g/ha [1, 6]	pest or weed control at 140 g/ha [1, 6]	pest or weed control at 70 g/ha [1, 7]	pest or weed control at 140 g/ha [1, 7]	pest or weed control at 70 g/ha [1, 8]	pest or weed control at 140 g/ha [1, 8]	pest or weed control at 70 g/ha [1, 9]	pest or weed control at 140 g/ha [1, 9]	pest or weed control at 70 g/ha [2, 10]	pest or weed control at 140 g/ha [2, 10]	pest or weed control at 70 g/ha [2, 11]	pest or weed control at 140 g/ha [2, 11]	pest or weed control at 70 g/ha [2, 12]	pest or weed control at 140 g/ha [2, 12]	further results
C=Cc1c(C(=O)O)nc(-c2ccc(I)cc2)c(F)c1N [Compound 17]	95 to 100%	95 to 100%	95 to 100%	95 to 100%	95 to 100%	95 to 100%	85 to 94%	95 to 100%	95 to 100%	95 to 100%	85 to 94%	95 to 100%	0 to 29%	0 to 29%	30 to 44%	45 to 59%	95 to 100%	95 to 100%	0 to 29%	0 to 29%	pest or weed control at 70 g/ha [2, 13]: 75 to 84%; pest or weed control at 140 g/ha [2, 13]: 85 to 94%; pest or weed control at 70 g/ha [2, 14]: 60 to 74%; pest or weed control at 140 g/ha [2, 14]: 85 to 94%; pest or weed control at 70 g/ha [2, 15]: 0 to 29%; pest or weed control at 140 g/ha [2, 15]: 45 to 59%; pest or weed control at 70 g/ha [2, 16]: 85 to 94%; pest or weed control at 140 g/ha [2, 16]: 95 to 100%; pest or weed control at 70 g/ha [2, 17]: 60 to 74%; pest or weed control at 140 g/ha [2, 17]: 75 to 84%
C#Cc1ccc(-c2nc(C(=O)O)c(C=C)c(N)c2F)cc1 [Compound 36]	0 to 29%	0 to 29%	95 to 100%	95 to 100%	0 to 29%	0 to 29%	85 to 94%	85 to 94%	95 to 100%	95 to 100%	85 to 94%	85 to 94%	0 to 29%	0 to 29%	45 to 59%	45 to 59%	0 to 29%	95 to 100%	0 to 29%	0 to 29%	pest or weed control at 70 g/ha [2, 13]: 60 to 74%; pest or weed control at 140 g/ha [2, 13]: 75 to 84%; pest or weed control at 70 g/ha [2, 14]: 0 to 29%; pest or weed control at 140 g/ha [2, 14]: 0 to 29%; pest or weed control at 70 g/ha [2, 15]: 0 to 29%; pest or weed control at 140 g/ha [2, 15]: 0 to 29%; pest or weed control at 70 g/ha [2, 16]: 60 to 74%; pest or weed control at 140 g/ha [2, 16]: 60 to 74%; pest or weed control at 70 g/ha [2, 17]: 30 to 44%; pest or weed control at 140 g/ha [2, 17]: 45 to 59%
